Source: US10039753B2, “Imidazo[4,5-c]quinoline and imidazo[4,5-c][1,5]naphthyridine derivatives as LRRK2 inhibitors” (Pfizer Inc., priority 2015, dated 2018)
Counter-ions that a name gives are not always drawn.

Key:
[1] = biological target: T1, GST-tagged truncated LRRK2 (Homo sapiens, UniProt Q5S007); assay: LRRK2 Assay, Format 1 (Lantha Screen), WT; type: biochemical
T1 construct: GST-tagged truncated LRRK2 from Invitrogen (Cat # PV4874); GST; purchased Invitrogen PV4874
Description: LRRK2 kinase activity was measured using Lantha Screen technology from Invitrogen. GST-tagged truncated LRRK2 from Invitrogen (Cat # PV4874) was incubated with a fluorescein-labeled peptide substrate based upon ezrin/radixin/moesin (ERM), also known as LRRKtide (Invitrogen cat # PR8976A), in the presence of a dose response of compound. Upon completion, the assay was stopped and detected with a terbium labeled anti-phospho-ERM antibody (Invitrogen, cat # PR8975A). […] Aliquots (3.5 μL) of the 100% DMSO dose response were mixed with 46.5 μL water then 1 μL of this mixture was added to the 3 μL substrate mix in the 384-well plate. The kinase reaction was started with 3 μL of a working solution of LRRK2 enzyme at a concentration of 4 μg/mL. […] The reaction was allowed to progress at room temperature for two hours and then stopped with the addition of 7 μL of detection buffer (20 mM Tris pH 7.6, 0.01% NP-40, 0.02% NaN3, 6 mM EDTA with 2 nM terbium labeled anti-phospho-ERM).

mutant G2019S LRRK2 [2] = biological target: T2, mutant G2019S LRRK2 (Homo sapiens, UniProt Q5S007, G2019S); assay: LRRK2 Assay, Format 1 (Lantha Screen), G2019S mutant
[3] = biological target: T1, GST-tagged truncated LRRK2; assay: LRRK2 Assay, Format 2 (Lantha Screen), WT; type: biochemical; conditions: geometric mean of 2-4 determinations unless otherwise indicated (a: >=5; b: single determination)
mutant G2019S LRRK2 [4] = biological target: T2, mutant G2019S LRRK2; assay: LRRK2 Assay, Format 2 (Lantha Screen), G2019S mutant; type: biochemical; parameters: purchased Invitrogen PV4881; conditions: geometric mean of 2-4 determinations unless otherwise indicated (a: >=5; b: single determination); read-out: LRRK2, Format 2 G2019S IC50
[5] = 100 nM LRRKtide, 50 μM ATP, 1.7 μg/mL LRRK2 enzyme, two hours at room temperature
[6] = Format 1, wild-type LRRK2, geometric mean of 2-4 determinations unless footnoted (a: ≥5 determinations; b: single determination; c: determined on trifluoroacetate salt)

T2 sequence (Q5S007 970-2527 G2019S limits assumed): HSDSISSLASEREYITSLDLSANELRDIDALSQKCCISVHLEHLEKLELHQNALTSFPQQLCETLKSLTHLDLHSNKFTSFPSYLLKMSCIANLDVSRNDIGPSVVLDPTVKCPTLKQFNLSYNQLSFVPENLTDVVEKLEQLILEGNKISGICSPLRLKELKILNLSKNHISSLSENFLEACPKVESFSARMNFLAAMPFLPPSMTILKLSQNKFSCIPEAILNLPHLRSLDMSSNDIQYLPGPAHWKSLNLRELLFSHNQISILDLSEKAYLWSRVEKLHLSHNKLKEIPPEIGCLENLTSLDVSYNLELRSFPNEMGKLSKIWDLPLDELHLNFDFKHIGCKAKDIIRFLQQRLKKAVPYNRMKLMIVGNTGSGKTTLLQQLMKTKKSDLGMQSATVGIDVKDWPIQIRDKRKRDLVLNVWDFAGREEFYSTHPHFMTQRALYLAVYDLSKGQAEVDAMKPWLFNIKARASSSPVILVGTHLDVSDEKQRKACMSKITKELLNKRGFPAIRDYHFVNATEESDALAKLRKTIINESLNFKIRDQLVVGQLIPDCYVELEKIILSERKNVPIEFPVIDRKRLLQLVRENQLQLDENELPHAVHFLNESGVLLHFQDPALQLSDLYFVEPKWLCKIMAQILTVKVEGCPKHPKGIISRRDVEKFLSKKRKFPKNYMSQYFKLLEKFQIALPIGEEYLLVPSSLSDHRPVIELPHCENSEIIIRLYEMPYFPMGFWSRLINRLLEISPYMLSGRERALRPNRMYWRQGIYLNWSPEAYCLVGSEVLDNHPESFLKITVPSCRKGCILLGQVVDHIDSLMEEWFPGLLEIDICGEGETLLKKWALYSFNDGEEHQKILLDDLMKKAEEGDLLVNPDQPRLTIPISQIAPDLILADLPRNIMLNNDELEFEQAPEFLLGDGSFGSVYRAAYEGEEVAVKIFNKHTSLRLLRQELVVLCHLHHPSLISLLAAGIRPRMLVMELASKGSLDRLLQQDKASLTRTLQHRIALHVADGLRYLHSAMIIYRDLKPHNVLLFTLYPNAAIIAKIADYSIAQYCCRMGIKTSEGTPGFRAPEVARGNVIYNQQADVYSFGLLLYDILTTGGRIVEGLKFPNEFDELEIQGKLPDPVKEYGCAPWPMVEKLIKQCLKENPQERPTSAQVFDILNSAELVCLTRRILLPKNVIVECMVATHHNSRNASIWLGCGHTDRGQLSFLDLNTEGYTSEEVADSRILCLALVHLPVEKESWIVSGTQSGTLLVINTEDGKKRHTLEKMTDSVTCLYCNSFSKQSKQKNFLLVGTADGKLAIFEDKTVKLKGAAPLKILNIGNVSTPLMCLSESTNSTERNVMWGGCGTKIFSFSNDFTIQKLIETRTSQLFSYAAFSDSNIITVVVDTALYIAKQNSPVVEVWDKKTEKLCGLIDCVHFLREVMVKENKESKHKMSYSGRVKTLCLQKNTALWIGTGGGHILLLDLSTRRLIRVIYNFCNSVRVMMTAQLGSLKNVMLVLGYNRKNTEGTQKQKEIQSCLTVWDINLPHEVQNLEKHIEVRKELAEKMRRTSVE
T1 sequence (Q5S007 970-2527 limits assumed): as the sequence (Q5S007 970-2527 G2019S limits assumed) above, with S1050G counted along it

IC50 [1, 5] [nM] | IC50 (mutant G2019S LRRK2 [2]) [nM] | IC50 [1, 6] [nM] | IC50 [3] [nM] | IC50 (mutant G2019S LRRK2 [4]) [nM] | SMILES
2850 | 929 | – | – | – | COc1ccc2ncc3nc(Cc4noc(C)n4)n([C@H]4CCO[C@@H](C)C4)c3c2c1 [enantiomer of Example 87, 8-methoxy-2-[(5-methyl-1,2,4-oxadiazol-3-yl)methyl]-1-[(2S,4S)-2-methyltetrahydro-2H-pyran-4-yl]-1H-imidazo[4,5-c]quinoline]
– | 82.4 | 78.2 | – | – | c1ccc2c(c1)ncc1nc(Cc3cn4ncsc4n3)n(C3CCOCC3)c12 [Example 69, 2-(imidazo[2,1-b][1,3,4]thiadiazol-6-ylmethyl)-1-(tetrahydro-2H-pyran-4-yl)-1H-imidazo[4,5-c]quinoline]
– | 3.1 | 4.4 | – | – | C[C@@H]1C[C@H](n2c(Cc3cn4ncsc4n3)nc3cnc4ccc(Cl)cc4c32)CCO1 [Example 8, 8-Chloro-2-(imidazo[2,1-b][1,3,4]thiadiazol-6-ylmethyl)-1-[(2R,4R)-2-methyltetrahydro-2H-pyran-4-yl]-1H-imidazo[4,5-c]quinoline]
– | 72.2 | 62.5 | – | – | CC(C)c1cn(Cc2nc3cnc4ccccc4c3n2C2CCOCC2)nn1 [Example 44, 2-{[4-(propan-2-yl)-1H-1,2,3-triazol-1-yl]methyl}-1-(tetrahydro-2H-pyran-4-yl)-1H-imidazo[4,5-c]quinoline]
– | 38.8 | 111 | – | – | COc1ccc2ncc3nc(Cc4noc(C)n4)n([C@@H]4CCO[C@H](C)C4)c3c2c1 [Example 87, 8-methoxy-2-[(5-methyl-1,2,4-oxadiazol-3-yl)methyl]-1-[(2R,4R)-2-methyltetrahydro-2H-pyran-4-yl]-1H-imidazo[4,5-c]quinoline]
– | 5.6 | 6.8 | – | – | COc1ccc(Cc2nc3cnc4ccc(Cl)cc4c3n2[C@@H]2CCO[C@H](C)C2)nc1 [Example 2, 8-Chloro-2-[(5-methoxypyridin-2-yl)methyl]-1-[(2R,4R)-2-methyltetrahydro-2H-pyran-4-yl]-1H-imidazo[4,5-c]quinoline]
382 | 196 | – | – | – | C[C@H]1C[C@@H](n2c(Cc3cscn3)nc3cnc4ccc(C#N)cc4c32)CCO1 [enantiomer of Example 57, 1-[(2S,4S)-2-methyltetrahydro-2H-pyran-4-yl]-2-(1,3-thiazol-4-ylmethyl)-1H-imidazo[4,5-c]quinoline-8-carbonitrile]
– | 191 | 160 | – | – | Cc1nc2cnc3ccc(C#N)cc3c2n1C1CCOCC1 [Example 14, 2-methyl-1-(tetrahydro-2H-pyran-4-yl)-1H-imidazo[4,5-c]quinoline-8-carbonitrile]
– | 98.4 | 76.3 | – | – | CC1(C)CC(n2c(Cc3cn4ncsc4n3)nc3cnc4ccccc4c32)CCO1 (stereo not shown) [Example 73, 1-(2,2-dimethyltetrahydro-2H-pyran-4-yl)-2-(imidazo[2,1-b][1,3,4]thiadiazol-6-ylmethyl)-1H-imidazo[4,5-c]quinoline, trifluoroacetate salt]
1050 | 372 | – | – | – | COc1ccc2ncc3nc(Cn4cc(C)nn4)n([C@H]4CCO[C@@H](C)C4)c3c2c1 [enantiomer of Example 88, 8-methoxy-1-[(2S,4S)-2-methyltetrahydro-2H-pyran-4-yl]-2-[(4-methyl-1H-1,2,3-triazol-1-yl)methyl]-1H-imidazo[4,5-c]quinoline]
– | 67.9 | 181 | – | – | C[C@@H]1C[C@H](n2c(Cc3cscn3)nc3cnc4ccc(C#N)cc4c32)C[C@H](C)O1 [Example 61, 1-[(2R,4r,6S)-2,6-dimethyltetrahydro-2H-pyran-4-yl]-2-(1,3-thiazol-4-ylmethyl)-1H-imidazo[4,5-c]quinoline-8-carbonitrile]
– | 257 | 187 | – | – | Cc1nc2cnc3ccccc3c2n1[C@H]1CCO[C@@H](C)C1 (racemic) [Example 15, 2-methyl-1-(cis-2-methyltetrahydro-2H-pyran-4-yl)-1H-imidazo[4,5-c]quinoline]
– | 8 | 8.8 | – | – | C[C@@H]1C[C@H](n2c(Cc3ccon3)nc3cnc4ccc(F)cc4c32)CCO1 [Example 54, 8-fluoro-1-[(2R,4R)-2-methyltetrahydro-2H-pyran-4-yl]-2-(1,2-oxazol-3-ylmethyl)-1H-imidazo[4,5-c]quinoline]
– | 12.1 | 16.1 | – | – | Clc1ccc2ncc3nc(Cc4ccon4)n(C4CCOCC4)c3c2c1 [Example 63, 8-chloro-2-(1,2-oxazol-3-ylmethyl)-1-(tetrahydro-2H-pyran-4-yl)-1H-imidazo[4,5-c]quinoline, formate salt]
– | – | – | 4.3 | 3.7 | C[C@@H]1C[C@H](n2c(Cc3coc(C4CC4)n3)nc3cnc4ccc(C#N)cc4c32)CCO1 [Example 122, 2-[(2-cyclopropyl-1,3-oxazol-4-yl)methyl]-1-[(2R,4R)-2-methyltetrahydro-2H-pyran-4-yl]-1H-imidazo[4,5-c]quinoline-8-carbonitrile, formate salt]
– | – | – | 7.53 | 8.21 | C[C@@H]1C[C@H](n2c(Cc3cc(C(F)(F)F)on3)nc3cnc4ccc(C#N)cc4c32)CCO1 [Example 119, 1-[(2R,4R)-2-methyltetrahydro-2H-pyran-4-yl]-2-{[5-(trifluoromethyl)-1,2-oxazol-3-yl]methyl}-1H-imidazo[4,5-c]quinoline-8-carbonitrile]
– | – | – | 5.04 | 3.54 | C[C@@H]1C[C@H](n2c(Cc3cc(CF)on3)nc3cnc4ccc(C#N)cc4c32)CCO1 [Example 189, 2-{[5-(fluoromethyl)-1,2-oxazol-3-yl]methyl}-1-[(2R,4R)-2-methyltetrahydro-2H-pyran-4-yl]-1H-imidazo[4,5-c]quinoline-8-carbonitrile, trifluoroacetate salt]
– | – | – | 21.9 | 25.6 | Cc1cnn(Cc2nc3cnc4ccc(C#N)cc4c3n2[C@H]2CC[C@@H](F)C2)c1 (single isomer, unassigned) [Example C58, 1-[cis-3-fluorocyclopentyl]-2-[(4-methyl-1H-pyrazol-1-yl)methyl]-1H-imidazo[4,5-c]quinoline-8-carbonitrile]
– | – | – | 14.5 | 22.6 | Cc1cc(Cc2nc3cnc4ccc(C#N)cc4c3n2[C@@H]2CCC[C@@H]2F)no1 (single isomer, unassigned; ent-2) [Example 147, 1-(cis-2-fluorocyclopentyl)-2-[(5-methyl-1,2-oxazol-3-yl)methyl]-1H-imidazo[4,5-c]quinoline-8-carbonitrile, ENT-2]
– | – | – | 4.78 | 4.31 | CCc1nn2cc(Cc3nc4cnc5ccc(C#N)cc5c4n3[C@@H]3CCO[C@H](C)C3)nc2s1 [Example 156, 2-[(2-ethylimidazo[2,1-b][1,3,4]thiadiazol-6-yl)methyl]-1-[(2R,4R)-2-methyltetrahydro-2H-pyran-4-yl]-1H-imidazo[4,5-c]quinoline-8-carbonitrile, formate salt]
– | – | – | 19.9 | 25.1 | Cc1cnn(Cc2nc3cnc4ccc(C#N)cc4c3n2[C@@H]2CCN(C)C2)c1 [Example 194, 2-[(4-methyl-1H-pyrazol-1-yl)methyl]-1-[(3R)-1-methylpyrrolidin-3-yl]-1H-imidazo[4,5-c]quinoline-8-carbonitrile]
– | – | – | 3.96 | 3.79 | Cc1nn2cc(Cc3nc4cnc5ccc(C#N)cc5c4n3[C@@H]3CCO[C@H](C)C3)nc2s1 [Example 157, 2-[(2-methylimidazo[2,1-b][1,3,4]thiadiazol-6-yl)methyl]-1-[(2R,4R)-2-methyltetrahydro-2H-pyran-4-yl]-1H-imidazo[4,5-c]quinoline-8-carbonitrile, formate salt]
– | – | – | 2.89 | 3.72 | C[C@@H]1C[C@H](n2c(Cc3cc(CO)on3)nc3cnc4ccc(Cl)cc4c32)CCO1 [Example 138]
– | – | – | 5.74 | 5.07 | C[C@@H]1C[C@H](n2c(Cn3cncn3)nc3cnc4ccc(C#N)cc4c32)CCO1 [Example 120, 1-[(2R,4R)-2-methyltetrahydro-2H-pyran-4-yl]-2-(1H-1,2,4-triazol-1-ylmethyl)-1H-imidazo[4,5-c]quinoline-8-carbonitrile, formate salt]

SMILES | IC50 [1, 5] [nM] | IC50 (mutant G2019S LRRK2 [2]) [nM] | IC50 [1, 6] [nM] | IC50 [3] [nM] | IC50 (mutant G2019S LRRK2 [4]) [nM]
Cc1cnn(Cc2nc3cnc4ccc(Cl)cc4c3n2[C@@H]2CCO[C@H](C)C2)n1 [Example 103, 8-Chloro-1-[(2R,4R)-2-methyltetrahydro-2H-pyran-4-yl]-2-[(4-methyl-2H-1,2,3-triazol-2-yl)methyl]-1H-imidazo[4,5-c]quinoline] | – | – | – | 11.2 | 10.6
C[C@@H]1C[C@H](n2c(C(F)c3ccon3)nc3cnc4ccc(Cl)cc4c32)CCO1 (single isomer, unassigned) [Example 238] | – | – | – | 3.88 | 3.82
